Laboratory results as given in PMC8502442 (Pharmacology Research & Perspectives, 2021).
Where two headings read alike, the source gives them in different places.

Tests used:
[1] = rat, cited from earlier work
[2] = Rat pharmacokinetics following an IV single bolus; type: in vivo; details: plasma, 1 mg/kg
[3] = male, Sprague-Dawley, rat, intravenous, n = 3, mean ± SD
[4] = rat microdialysis, brain versus blood; cited from earlier work
[5] = humans; cited from earlier work
parental MDCK cell = parental MDCK cell assay; cited from earlier work
[6] = K puu liver, ratio of unbound liver concentration to unbound blood concentration at steady state
[7] = K puu muscle, ratio of unbound muscle concentration to unbound blood concentration at steady state

SMILES: CC12CC3CC(C)(C1)CC(N)(C3)C2 [Memantine, memantine]
- reported plasma CL ([1]; ref 18, 19, 20, 21, 22, 23): 69 mL/min/kg
- plasma CL ([1]; ref 47): about 45 ml/min/kg
- renal CL ([1]; ref 47): about 13 ml/min/kg
- Vd [2]: 7.36 ± 1.58 L/kg
- clearance [2]: 60.5 ± 9.9 mL/min/kg
- half-life [2]: 1.72 ± 0.03 h
- Kp [3, 6]: 1.56
- Kp [3, 7]: 2.13
- reported K puu,brain [4]: 1.80

SMILES: NCC1(CC(=O)O)CCCCC1 [Gabapentin, gabapentin]
- Vd [2]: 0.451 ± 0.001 L/kg
- clearance [2]: 1.53 ± 0.31 mL/min/kg
- half-life [2]: 3.58 ± 0.87 h
- Kp [3, 6]: 2.23
- Kp [3, 7]: 1.39 ± 0.51

SMILES: CC(C)NCC(O)COc1ccc(CC(N)=O)cc1 (stereo not shown) [Atenolol, atenolol]
- share eliminated via the kidneys [5]: > 95%

SMILES: CC1COc2c(N3CCN(C)CC3)c(F)cc3c(=O)c(C(=O)O)cn1c23 (stereo not shown) [Ofloxacin, ofloxacin]
- reported plasma CL ([1]; ref 20, 26, 36, 37): 27.5 mL/min/kg
- non-renal CL (biliary excretion + metabolism) as share of total CL ([1]; ref 36): about 45%
- renal CL ([1]; ref 36): about 15 ml/min/kg
- renal CL as share of total CL ([1]; ref 36): 55%
- total CL ([1]; ref 36): 27.5 mL/min/kg
- Kp [3, 6]: ~0.501
- Kp [3, 7]: 0.641 ± 0.206

SMILES: CC(C)NCC(O)COc1cccc2ccccc12 (stereo not shown) [Propranolol, propranolol]
- reported plasma CL ([1]; ref 18, 19, 20, 21, 22, 23): 70 to 90 mL/min/kg
- P app (parental MDCK cell): 11 ×10⁻⁶ cm/s

SMILES: COc1ccc(CN(CCN(C)C)c2ccccn2)cc1 [Pyrilamine, pyrilamine]
- Vd [2]: 12.6 ± 1.6 L/kg
- clearance [2]: 167 ± 24 mL/min/kg
- half-life [2]: 2.16 ± 0.63 h
- reported K puu,brain [4]: 2.50

SMILES: C[C@H]1O[C@@H](O[C@H]2[C@@H](O)C[C@H](O[C@H]3[C@@H](O)C[C@H](O[C@H]4CC[C@@]5(C)[C@H](CC[C@@H]6[C@@H]5C[C@@H](O)[C@]5(C)[C@@H](C7=CC(=O)OC7)CC[C@]65O)C4)O[C@@H]3C)O[C@@H]2C)C[C@H](O)[C@@H]1O [Digoxin, digoxin]
- reported plasma CL ([1]; ref 20, 26, 36, 37): 17.3 mL/min/kg
- reported plasma CL ([1]; ref 24, 25, 26, 27): 17.3 mL/min/kg
- non-renal CL (biliary excretion + hepatic metabolism) as share of total CL ([1]; ref 26): 70%–80%
- renal CL as share of total CL ([1]; ref 26): 20%–30%

SMILES: NC(=O)N1c2ccccc2C=Cc2ccccc21 [Carbamazepine, carbamazepine]
- reported plasma CL ([1]; ref 24, 25, 26, 27): 15.0 mL/min/kg
- N-glucuronide as share of the administered dose ([1]; ref 34): 20%–30%
- Kp [3, 6]: 0.913 ± 0.169
- Kp [3, 7]: 1.02 ± 0.27
- P app (parental MDCK cell): 27.5 ×10⁻⁶ cm/s

SMILES: COc1ccc([C@@H]2Sc3ccccc3N(CCN(C)C)C(=O)[C@@H]2OC(C)=O)cc1 [Diltiazem, diltiazem]
- reported plasma CL ([1]; ref 18, 19, 20, 21, 22, 23): 90 mL/min/kg

SMILES: Cc1cc(=O)n(-c2ccccc2)n1C [Antipyrine]
- reported plasma CL ([1]; ref 24, 25, 26, 27): 4.80 mL/min/kg
- Kp [3, 6]: 0.932 ± 0.178
- Kp [3, 7]: 0.771 ± 0.215

SMILES: C=C[C@H]1C[N@@]2CC[C@H]1C[C@@H]2[C@@H](O)c1ccnc2ccc(OC)cc12 [Quinidine, quinidine]
- Kp [3, 6]: 0.677 ± 0.27
- Kp [3, 7]: 1.75 ± 0.64
